Literature values in article PMC6317804, “The integration of pharmacophore-based 3D QSAR modeling and virtual screening in safety profiling: A case study to identify antagonistic activities against adenosine receptor, A2A, using 1,897 known drugs” (PLoS ONE, 2019).

Target: T1, adenosine receptor 2A (A2A) (Homo sapiens, UniProt P29274)
T1 construct: CEREP (Poitiers, France), paid service
T1 sequence (P29274 whole entry): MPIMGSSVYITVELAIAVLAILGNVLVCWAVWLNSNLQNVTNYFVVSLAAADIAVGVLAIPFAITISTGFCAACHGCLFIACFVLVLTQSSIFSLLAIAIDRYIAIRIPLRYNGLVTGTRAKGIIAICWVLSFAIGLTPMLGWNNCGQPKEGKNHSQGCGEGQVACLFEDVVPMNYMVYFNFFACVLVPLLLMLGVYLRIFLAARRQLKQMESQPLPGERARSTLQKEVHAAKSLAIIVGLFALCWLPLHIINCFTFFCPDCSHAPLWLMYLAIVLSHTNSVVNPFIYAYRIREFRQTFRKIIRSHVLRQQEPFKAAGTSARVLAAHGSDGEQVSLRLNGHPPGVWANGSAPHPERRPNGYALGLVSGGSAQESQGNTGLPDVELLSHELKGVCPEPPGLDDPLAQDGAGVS
Settings: S1 Table, compounds given as SMILES, downloaded from ChEMBL; cited from earlier work
In the case of `Cc1ccc(C(=O)c2nc(NC(C)c3ccccn3)nc3ccsc23)s1` (centres unmarked), the IC50 is given as 118 nM. In the case of `Cc1ccc(C(=O)c2ncnc3ccsc23)s1` [Cc1ccc(s1)C(=O)c2ncnc3ccsc23], the IC50 is given as 6680 nM. For `C[C@H](Nc1nc(C(=O)N2CCCC2)c2sccc2n1)c1cccnc1`, the IC50 is given as 468 nM. For `Cc1ccc(C(=O)c2nc(NC(C)c3cccnc3)nc3ccsc23)s1` (centres unmarked), the IC50 is listed as 99 nM. In the case of `COc1ccc(C(=O)c2nc(NCc3cccnc3)nc3ccsc23)cc1`, the IC50 is listed as 637 nM. In the case of `Nc1nc2c(cnn2CCCc2ccc(O)cc2)c2nc(-c3ccco3)nn12`, the IC50 is listed as 10 nM. For `CCOC(=O)Nc1cc(-c2cncc(OC)c2)nc(-n2nc(C)cc2C)n1`, the IC50 is listed as 196 nM. In the case of `CCNc1nc(C(=O)c2ccc(C)s2)c2sccc2n1` [CCNc1nc(C(=O)c2ccc(C)s2)c3sccc3n1], the IC50 is listed as 126 nM. In the case of `Cc1ccc(C(=O)c2nc(NCCc3cccnc3)nc3ccsc23)s1`, the IC50 is listed as 177 nM. In the case of “5-methoxy-2-((3-methyl-1-phenyl-4-(quinoxalin-6-yl)-1H-pyrazol-5-yl)amino)benzoic acid”, the IC50 is given as 5500 nM. For `CCc1nn(-c2ccccc2C)c(Nc2ccccc2C(=O)O)c1-c1ccc2nccnc2c1`, the IC50 is given as 50000 nM. In the case of `CCc1nc(C(=O)c2ccc(C)s2)c2sccc2n1` [CCc1nc(C(=O)c2ccc(C)s2)c3sccc3n1], the IC50 is listed as 3850 nM. For `Cc1ccc(C(=O)c2nc(NC(=O)c3cccnc3)nc3ccsc23)s1`, the IC50 is given as 161 nM. In the case of `CCCSc1c2c(nc(N)n3nc(-c4ccco4)nc23)nn1C` [CCCSc1c2c(nc(N)n3nc(nc23)c4occc4)nn1C], the IC50 is listed as 14.8 nM. For `Cc1ccc(C(=O)c2nc(NCC3CCCCC3)nc3ccsc23)s1` [Cc1ccc(s1)C(=O)c2nc(NCC3CCCCC3)nc4ccsc24], the IC50 is given as 10000 nM. For `Cc1ccc(C(=O)c2nc(NC(C)c3ccccc3)nc3ccsc23)s1` (centres unmarked), the IC50 is listed as 1080 nM. In the case of `COc1ccc(Nc2c(-c3ccc4nccnc4c3)c(C)nn2-c2ccccc2C)c(C(=O)O)c1`, the IC50 is listed as 50000 nM. In the case of `Cc1ccc(C(=O)c2nc(N(C)Cc3cccnc3)nc3ccsc23)s1`, the IC50 is listed as 2270 nM. In the case of `CC(=O)Nc1cc(-c2cncc(O)c2)nc(-n2nc(C)cc2C)n1`, the IC50 is given as 64 nM. For `CCNC(=O)c1nc(NCc2cccnc2)nc2ccsc12` [CCNC(=O)c1nc(NCc2cccnc2)nc3ccsc13], the IC50 is given as 2520 nM. For `COC(=O)Nc1cc(-c2cncc(OC)c2)nc(-n2nc(C)cc2C)n1`, the IC50 is given as 167 nM. For `O=C(NC1CC1)c1nc(NCc2cccnc2)nc2ccsc12` [O=C(NC1CC1)c2nc(NCc3cccnc3)nc4ccsc24], the IC50 is given as 710 nM. For `Nc1nc2c(cnn2CCc2ccc(OCc3ccccc3)cc2)c2nc(-c3ccco3)nn12`, the IC50 is listed as 90 nM. In the case of `Cc1ccc(C(=O)c2nc(NCc3ccncn3)nc3ccsc23)s1` [Cc1ccc(s1)C(=O)c2nc(NCc3ccncn3)nc4ccsc24], the IC50 is listed as 116 nM. In the case of `CCNc1cc2nc(NCc3cccnc3)nc(C(=O)c3cccs3)c2s1`, the IC50 is listed as 2480 nM. In the case of `COc1cccc(-c2cc(NC(C)=O)nc(-n3nc(C)cc3C)n2)c1F`, the IC50 is given as 32 nM. In the case of `Nc1nc2c(cnn2Cc2ccc(OCc3ccccc3)cc2)c2nc(-c3ccco3)nn12`, the IC50 is given as 500 nM. For `O=C(c1cccs1)c1nc(NCc2cccnc2)nc2ccsc12` [O=C(c1cccs1)c2nc(NCc3cccnc3)nc4ccsc24], the IC50 is listed as 51 nM. In the case of `CCNc1c2c(nc(NC(=O)Nc3ccc(OC)cc3)n3nc(-c4ccco4)nc23)nn1C`, the IC50 is listed as 61 nM. In the case of `CC(=O)Nc1cc(-c2cccc(N3CCC(O)CC3)n2)nc(-n2nc(C)cc2C)n1`, the IC50 is listed as 22 nM. In the case of `CSc1c2c(nc(N)n3nc(-c4ccco4)nc23)nn1C` [CSc1c2c(nc(N)n3nc(nc23)c4occc4)nn1C], the IC50 is given as 6.1 nM. For `Cc1ccccc1-n1nc(C)c(-c2ccc3nccnc3c2)c1Nc1ccc(Cl)cc1C(=O)O`, the IC50 is given as 50000 nM. For `Cc1ccc(C(=O)c2nc(NCCc3ccccn3)nc3ccsc23)s1`, the IC50 is given as 351 nM. For `Nc1cc2nc(NCc3cccnc3)nc(C(=O)c3cccs3)c2s1` [Nc1cc2nc(NCc3cccnc3)nc(C(=O)c4cccs4)c2s1], the IC50 is listed as 10000 nM. For `COc1ccc(CCCn2ncc3c2nc(N)n2nc(-c4ccco4)nc32)cc1OC`, the IC50 is listed as 20 nM. For `CN(C)c1cc2nc(NCc3cccnc3)nc(C(=O)c3cccs3)c2s1`, the IC50 is given as 1420 nM. In the case of `Cc1ccc(C(=O)c2nc(NCc3cccnc3)nc3ccsc23)cc1`, the IC50 is listed as 442 nM. For `Cc1ccccc1-n1ncc(-c2ccc3nccnc3c2)c1Nc1ccccc1C(=O)O`, the IC50 is given as 50000 nM. For `O=C(c1cccs1)c1nc(NCc2cccnc2)nc2cc(Cl)sc12`, the IC50 is given as 62 nM. In the case of `COc1ccc(Nc2c(-c3ccc4nccnc4c3)c(C)nn2-c2ccccc2Cl)c(C(=O)O)c1`, the IC50 is given as 50000 nM. For `O=C(c1nc(NCc2cccnc2)nc2ccsc12)N1CCCC1` [O=C(N1CCCC1)c2nc(NCc3cccnc3)nc4ccsc24], the IC50 is given as 6140 nM. In the case of `CCc1ccccc1-n1nc(C)c(-c2ccc3nccnc3c2)c1Nc1ccc(OC)cc1C(=O)O`, the IC50 is given as 50000 nM. For `Cc1nc(C(=O)c2ccc(C)s2)c2sccc2n1` [Cc1ccc(s1)C(=O)c2nc(C)nc3ccsc23], the IC50 is given as 7850 nM. In the case of `Cc1ccc(Nc2c(-c3ccc4nccnc4c3)c(C)nn2-c2ccccc2C)c(C(=O)O)c1`, the IC50 is listed as 50000 nM. In the case of `O=C(c1ccncc1)c1nc(NCc2cccnc2)nc2ccsc12` [O=C(c1ccncc1)c2nc(NCc3cccnc3)nc4ccsc24], the IC50 is given as 1940 nM. In the case of `O=C(c1cccnc1)c1nc(NCc2cccnc2)nc2ccsc12` [O=C(c1cccnc1)c2nc(NCc3cccnc3)nc4ccsc24], the IC50 is listed as 1170 nM. For `Cc1ccc(C(=O)c2nc(NCc3ccccn3)nc3ccsc23)s1` [Cc1ccc(s1)C(=O)c2nc(NCc3ccccn3)nc4ccsc24], the IC50 is listed as 186 nM. For `Cc1ccc(C(=O)c2nc(N)nc3ccsc23)s1` [Cc1ccc(s1)C(=O)c2nc(N)nc3ccsc23], the IC50 is given as 220 nM. In the case of `C[C@@H](Nc1nc(C(=O)N2CCCC2)c2sccc2n1)c1cccnc1`, the IC50 is listed as 6760 nM. In the case of `Cc1ccc(C(=O)c2nc(NCc3cccnc3)nc3ccsc23)o1` [Cc1oc(cc1)C(=O)c2nc(NCc3cccnc3)nc4ccsc24], the IC50 is given as 1250 nM. In the case of `Cc1ccc(C(=O)c2nc(NCc3cccnc3)nc3ccsc23)s1` [Cc1ccc(s1)C(=O)c2nc(NCc3cccnc3)nc4ccsc24], the IC50 is given as 990 nM. For `O=C(c1cncs1)c1nc(NCc2cccnc2)nc2ccsc12` [O=C(c1cncs1)c2nc(NCc3cccnc3)nc4ccsc24], the IC50 is listed as 1720 nM. For `CNc1cc2nc(NCc3cccnc3)nc(C(=O)c3cccs3)c2s1`, the IC50 is listed as 965 nM. For `O=C(c1ccccc1)c1nc(NCc2cccnc2)nc2ccsc12` [O=C(c1ccccc1)c2nc(NCc3cccnc3)nc4ccsc24], the IC50 is listed as 1620 nM. For `O=C(c1ccc(Cl)s1)c1nc(NCc2cccnc2)nc2ccsc12`, the IC50 is listed as 1540 nM. For `O=C(c1nccs1)c1nc(NCc2cccnc2)nc2ccsc12` [O=C(c1nccs1)c2nc(NCc3cccnc3)nc4ccsc24], the IC50 is listed as 732 nM. For `CC(Nc1nc(C(=O)N2CCCC2)c2sccc2n1)c1cccnc1` (centres unmarked) [CC(Nc1nc(C(=O)N2CCCC2)c3sccc3n1)c4cccnc4], the IC50 is listed as 2350 nM. In the case of `Cc1ccccc1-n1nc(C)c(-c2cc(F)c3nccnc3c2)c1Nc1ccccc1C(=O)O`, the IC50 is listed as 50000 nM. In the case of `Cc1ccccc1-n1nc(C(F)(F)F)c(-c2ccc3nccnc3c2)c1Nc1ccccc1C(=O)O`, the IC50 is listed as 50000 nM. For `O=C(c1ccsc1)c1nc(NCc2cccnc2)nc2ccsc12` [O=C(c1ccsc1)c2nc(NCc3cccnc3)nc4ccsc24], the IC50 is listed as 405 nM.

Same assay, conditions: S1 Table, compounds given as SMILES, downloaded from ChEMBL; listed as COc1ccc(Nc2c(c(C)nn2C3CCCCC3)c4ccc5nccnc5c4)c(c1)C(=O)O; cited from earlier work
In the case of “5-methoxy-2-((3-methyl-1-phenyl-4-(quinoxalin-6-yl)-1H-pyrazol-5-yl)amino)benzoic acid”, the IC50 is listed as 50000 nM.

Same assay, conditions: S1 Table, compounds given as SMILES, downloaded from ChEMBL; listed as Cc1ccc(s1)C(=O)c2nc(NCc3ccccc3)nc4ccsc24; cited from earlier work
For `Cc1ccc(C(=O)c2nc(NCC3CCCCC3)nc3ccsc23)s1` [Cc1ccc(s1)C(=O)c2nc(NCC3CCCCC3)nc4ccsc24], the IC50 is listed as 7150 nM.

Same assay, conditions: training set compound, negative logarithm of IC50; cited from earlier work
In the case of “5-methoxy-2-((3-methyl-1-phenyl-4-(quinoxalin-6-yl)-1H-pyrazol-5-yl)amino)benzoic acid”, the “measured pIC50” value is listed as 4.3. In the case of `Cc1ccc(C(=O)c2nc(NCc3ccncn3)nc3ccsc23)s1` [Cc1ccc(s1)C(=O)c2nc(NCc3ccncn3)nc4ccsc24], the “measured pIC50” value is listed as 6.9. In the case of `CC(C)NC(=O)c1nc(NCc2cccnc2)nc2ccsc12` [CC(C)NC(=O)c1nc(NCc2cccnc2)nc3ccsc13, N-isopropyl-2-((pyridin-3-ylmethyl)amino)thieno[3,2-d]pyrimidine-4-carboxamide], the “measured pIC50” value is given as 5.6.
